This is an account of results in patent publication US12617797B2, “Substituted pyrazolo [1,5-a]pyrimidines having multimodal activity against pain” (ESTEVE PHARMACEUTICALS, S.A., priority 2020, dated 2026).

Bounds are passed on as bounds.

Assay [1] concerns the target Human α2δ-1 subunit of Cav2.2 calcium channel (Homo sapiens, UniProt P54289). The assay can be described thus: Human α2δ-1 subunit of Cav2.2 calcium channel assay ([3H]-gabapentin binding). The settings on record: binding to the α2δ-1 subunit of voltage-gated calcium channels expressed as Ki; + also covers inhibition between 1% and 50%. The gist of the method: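 Membranes enriched in human α2δ-1 incubated with 15 nM [3H]-gabapentin in 10 mM Hepes-KOH pH 7.4, 60 min at 27 °C; nonspecific binding defined with 10 μM pregabalin. Filtration and scintillation counting; % inhibition at 1 or 10 μM, or Ki from five concentrations.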

The target of the next assay is T1, Human σ1 receptor (Homo sapiens, UniProt Q99720).
T1 construct: expressed in transfected cells; host or cells: HEK-293
Put plainly: Human σ1 receptor radioligand assay ([3H](+)-pentazocine binding, transfected HEK-293 membranes). The settings on record: binding to σ1 receptor expressed as Ki; + also covers inhibition between 1% and 50%; read-out: σ-1 binding. In short, it runs like this: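 Membranes (7 μg) were incubated with 5 nM [3H](+)-pentazocine in 50 mM Tris-HCl pH 8 for 120 min at 37° C. Non-specific binding was defined with 10 μM haloperidol. Values are % inhibition at 1 or 10 μM or Ki from five concentrations, read by filtration and scintillation counting.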

Human α2δ-1 subunit of Cav2.2 calcium channel, sequence (P54289 25-1103): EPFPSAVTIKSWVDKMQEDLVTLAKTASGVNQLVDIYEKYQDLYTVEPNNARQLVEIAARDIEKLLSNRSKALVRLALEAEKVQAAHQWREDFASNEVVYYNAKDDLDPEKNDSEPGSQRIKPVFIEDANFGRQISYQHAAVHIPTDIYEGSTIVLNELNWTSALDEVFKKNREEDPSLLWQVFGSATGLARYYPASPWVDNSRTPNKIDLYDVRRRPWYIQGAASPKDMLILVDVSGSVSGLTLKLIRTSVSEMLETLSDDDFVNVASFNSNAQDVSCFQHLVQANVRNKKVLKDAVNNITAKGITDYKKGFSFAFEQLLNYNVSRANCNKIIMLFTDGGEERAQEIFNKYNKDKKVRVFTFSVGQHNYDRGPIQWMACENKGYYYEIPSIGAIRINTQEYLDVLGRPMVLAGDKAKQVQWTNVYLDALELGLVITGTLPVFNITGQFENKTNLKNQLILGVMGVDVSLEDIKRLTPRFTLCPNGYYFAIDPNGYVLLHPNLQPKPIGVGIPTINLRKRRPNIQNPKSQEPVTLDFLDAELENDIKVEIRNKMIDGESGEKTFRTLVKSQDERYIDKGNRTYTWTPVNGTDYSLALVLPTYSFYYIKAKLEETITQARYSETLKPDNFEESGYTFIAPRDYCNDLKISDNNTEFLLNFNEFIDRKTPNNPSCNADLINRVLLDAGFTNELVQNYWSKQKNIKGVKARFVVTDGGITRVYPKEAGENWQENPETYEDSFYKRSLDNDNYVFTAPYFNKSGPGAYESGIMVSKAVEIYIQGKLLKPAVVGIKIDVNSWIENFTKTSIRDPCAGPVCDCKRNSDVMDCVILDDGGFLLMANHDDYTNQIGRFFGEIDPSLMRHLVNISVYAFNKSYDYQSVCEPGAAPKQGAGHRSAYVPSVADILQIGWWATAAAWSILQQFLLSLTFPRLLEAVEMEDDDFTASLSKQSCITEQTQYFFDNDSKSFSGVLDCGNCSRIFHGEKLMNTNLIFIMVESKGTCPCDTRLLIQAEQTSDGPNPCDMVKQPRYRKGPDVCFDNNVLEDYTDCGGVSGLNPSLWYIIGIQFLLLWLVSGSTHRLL
T1 sequence (Q99720 whole entry): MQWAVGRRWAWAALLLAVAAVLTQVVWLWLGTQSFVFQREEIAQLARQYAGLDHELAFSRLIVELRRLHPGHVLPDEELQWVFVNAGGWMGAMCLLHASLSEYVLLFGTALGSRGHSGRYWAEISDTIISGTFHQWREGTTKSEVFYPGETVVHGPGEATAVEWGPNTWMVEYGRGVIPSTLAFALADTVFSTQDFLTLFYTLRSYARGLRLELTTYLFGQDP

In the case of `Cc1nn2c([C@H]3CCCN(Cc4ccccc4)C3)ccnc2c1CNC[C@@H]1CCC(=O)NC1` [Example 246, (S)-5-((((7-((S)-1-Benzylpiperidin-3-yl)-2-methylpyrazolo[1,5-a]pyrimidin-3-yl)methyl)amino)methyl)piperidin-2-one], the Ki was 500 to 5000 nM in assay [1] and greater than 1000 nM on Human σ1 receptor.
Consider `Cc1cc2nccc(C3CCCN(Cc4ccccc4F)C3)n2n1` (stereo not drawn) [Example 63, 7-(1-(2-Fluorobenzyl)piperidin-3-yl)-2-methylpyrazolo[1,5-a]pyrimidine], for which the Ki was greater than 5000 nM in assay [1] and greater than 1000 nM at Human σ1 receptor.
As to `Cc1nn2c(C3CCCCN(Cc4ccc(Cl)cc4)C3)ccnc2c1CNCC1CCOCC1` (stereo not drawn) [Example 253, 1-(7-(1-(4-Chlorobenzyl)azepan-3-yl)-2-methylpyrazolo[1,5-a]pyrimidin-3-yl)-N-((tetrahydro-2H-pyran-4-yl)methyl)methanamine], the Ki was greater than 5000 nM in assay [1] and less than 500 nM on Human σ1 receptor.
On the same counts, the results for `Cc1nn2c(C3CCCN(Cc4ccccc4)C3)ccnc2c1-c1ccnc(C(F)(F)F)c1` (stereo not drawn) [Example 53, 7-(1-Benzylpiperidin-3-yl)-2-methyl-3-(2-(trifluoromethyl)pyridin-4-yl)pyrazolo[1,5-a]pyrimidine] are 500 to 5000 nM and greater than 1000 nM.
In the case of `CCc1nn2c(C3CCCN(Cc4ccc(Cl)cc4)C3)ccnc2c1CNCC1CCOCC1` (stereo not drawn) [Example 187, 1-(7-(1-(4-Chlorobenzyl)piperidin-3-yl)-2-ethylpyrazolo[1,5-a]pyrimidin-3-yl)-N-((tetrahydro-2H-pyran-4-yl)methyl)methanamine], the Ki (in assay [1]; on Human σ1 receptor) was less than 500 nM each time.
As to `Fc1ccc(CN2CCCC(c3ccnc4cc(Br)nn34)C2)cc1F` (stereo not drawn) [Example 113, 2-Bromo-7-(1-(3,4-difluorobenzyl)piperidin-3-yl)pyrazolo[1,5-a]pyrimidine], the Ki is 500 to 5000 nM in assay [1] and greater than 1000 nM on Human σ1 receptor.
As to `Cc1nn2c(C3CCCN(Cc4cccc(F)c4)C3)ccnc2c1CNCC1CCOCC1` (stereo not drawn) [Example 181, 1-(7-(1-(3-Fluorobenzyl)piperidin-3-yl)-2-methylpyrazolo[1,5-a]pyrimidin-3-yl)-N-((tetrahydro-2H-pyran-4-yl)methyl)methanamine], the Ki in assay [1] is 500 to 5000 nM; on Human σ1 receptor, less than 500 nM.
With `Cc1nn2c(C3CCCN(Cc4ccccc4)C3)ccnc2c1CN1CCNCC1` (stereo not drawn) [Example 100, 7-(1-Benzylpiperidin-3-yl)-2-methyl-3-(piperazin-1-ylmethyl)pyrazolo[1,5-a]pyrimidine], the Ki in assay [1] was 500 to 5000 nM; at Human σ1 receptor, greater than 1000 nM.
The matching figures for `CN(CCO)c1cc2nccc(C3CCCN(Cc4ccccc4)C3)n2n1` (stereo not drawn) [Example 79, 2-((7-(1-Benzylpiperidin-3-yl)pyrazolo[1,5-a]pyrimidin-2-yl)(methyl)amino)ethanol]: greater than 5000 nM and greater than 1000 nM.
As to `CC(=O)N1CCC(CNCc2c(Cl)nn3c(C4CCCN(CCC(C)C)C4)ccnc23)CC1` (stereo not drawn) [Example 192, 1-(4-((((2-chloro-7-(1-isopentylpiperidin-3-yl)pyrazolo[1,5-a]pyrimidin-3-yl)methyl)amino)methyl)piperidin-1-yl)ethan-1-one], the Ki was greater than 5000 nM in assay [1] and less than 500 nM at Human σ1 receptor.
On the same counts, the results for `Cc1nn2c(C3CCCN(Cc4ccc(Cl)cc4)C3)ccnc2c1CN1CCC(C#N)CC1` (stereo not drawn) [Example 172, 1-((7-(1-(4-Chlorobenzyl)piperidin-3-yl)-2-methylpyrazolo[1,5-a]pyrimidin-3-yl)methyl)piperidine-4-carbonitrile] are greater than 5000 nM and less than 500 nM.
As for `Cc1nn2c(C3CCCN(Cc4ccccc4)C3)ccnc2c1CNCC1C[C@@H](C)O[C@@H](C)C1` (stereo partly drawn) [Example 220, 1-(7-(1-Benzylpiperidin-3-yl)-2-methylpyrazolo[1,5-a]pyrimidin-3-yl)-N-(((2R,6S)-2,6-dimethyltetrahydro-2H-pyran-4-yl)methyl)methanamine], the Ki in assay [1] was 500 to 5000 nM; at Human σ1 receptor, 500 to 1000 nM.
